From US9684253B2, “Triphenylamine derivative, electrophotographic photosensitive member, and image forming apparatus” (KYOCERA Document Solutions Inc., priority 2014, dated 2017)

Assay: Evaluation of triphenylamine derivative solubility in tetrahydrofuran
Format: physicochemical
Conditions: for Solubility: tetrahydrofuran, 25° C., {100/(100+W)}×100; for solubility in a solvent used for photosensitive layer formation (in words): as shown by Table 1
Description: Solubility of each of the triphenylamine derivatives (HT-1) to (HT-8), (HT-A), and (HT-B) was evaluated. More specifically, solubility of the obtained triphenylamine derivative was evaluated by calculating percentage solubility according to the following method. In the method, a small amount of tetrahydrofuran was added to 100 mg of the triphenylamine derivative at 25° C. Next, the mixture was shaken and left to stand, and the above steps were repeated in order to find an additive amount W (mg) of tetrahydrofuran for which solubility of the triphenylamine derivative was saturated. The additive amount W was used to calculate the percentage solubility according to equation (1) shown below. […] Solubility (%)={100/(100+W)}×100 Equation (1): […]

Row | Structure (SMILES) | Solubility | solubility in a solvent used for photosensitive layer formation (in words)
1 | CCc1cccc(C)c1N(c1ccc(/C=C/C=C/c2ccccc2)cc1)c1ccc(-c2ccc(N(c3ccc(/C=C/C=C/c4ccccc4)cc3)c3c(C)cccc3CC)cc2)cc1 [HT-1] | 12% | –
2 | CCc1cccc(C)c1N(c1ccc(/C=C/C=C/c2ccc(C)cc2)cc1)c1ccc(-c2ccc(N(c3ccc(/C=C/C=C/c4ccc(C)cc4)cc3)c3c(C)cccc3CC)cc2)cc1 [HT-2] | 12% | –
3 | CCc1cccc(OC)c1N(c1ccc(/C=C/C=C/c2ccc(C)cc2)cc1)c1ccc(-c2ccc(N(c3ccc(/C=C/C=C/c4ccc(C)cc4)cc3)c3c(CC)cccc3OC)cc2)cc1 [HT-4] | 20% | –
4 | CCc1cccc(C)c1N(c1ccc(/C=C/C=C/c2cccc(OC)c2)cc1)c1ccc(-c2ccc(N(c3ccc(/C=C/C=C/c4cccc(OC)c4)cc3)c3c(CC)cccc3OC)cc2)cc1 [HT-5] | 18% | –
5 | C(/C=C/c1ccc(N(c2ccc(-c3ccc(N(c4ccc(/C=C/C=C/c5ccccc5)cc4)c4ccccc4-c4ccccc4)cc3)cc2)c2ccccc2-c2ccccc2)cc1)=C\c1ccccc1 [HT-8] | 12% | –

Results, then the compound that gave them:

Row | Solubility | solubility in a solvent used for photosensitive layer formation (in words) | Structure (SMILES)
6 | 14% | – | Cc1ccccc1N(c1ccc(/C=C/C=C/c2ccccc2)cc1)c1ccc(-c2ccc(N(c3ccc(/C=C/C=C/c4ccccc4)cc3)c3ccccc3C)cc2)cc1 [HT-3]
7 | 14% | – | Cc1ccc(N(c2ccc(/C=C/C=C/c3ccccc3)cc2)c2ccc(-c3ccc(N(c4ccc(/C=C/C=C/c5ccccc5)cc4)c4ccc(C)cc4C)cc3)cc2)c(C)c1 [HT-7]
8 | ≦1% | poor solubility | C(/C=C/c1ccc(N(c2ccccc2)c2ccc(-c3ccc(N(c4ccccc4)c4ccc(/C=C/C=C/c5ccccc5)cc4)cc3)cc2)cc1)=C\c1ccccc1 [HT-A, reference compound]
9 | 7% | poor solubility | Cc1cccc(N(c2ccc(/C=C/C=C/c3ccccc3)cc2)c2ccc(-c3ccc(N(c4ccc(/C=C/C=C/c5ccccc5)cc4)c4cccc(C)c4)cc3)cc2)c1 [HT-B, reference compound]
